Results: patent publication US12186293B2, “Therapeutic methods using decanoic acid and amino acids” (Wintermute Biomedical, Inc., priority 2018, dated 2025)

Test system: methicillin-resistant Staphylococcus aureus (MRSA)
Assay: In vitro bactericidal test on MRSA isolates (viable CFU/mL after 24 hours of treatment)
Details: average across three MRSA isolates
Method: Note that efficacy is reported in terms of the viable bacterial concentration (in CFU/mL) remaining after 24 hours of treatment with the drug product (in compliance with CLSI guidelines).
In this example, bacteria (MRSA isolates) are put onto fresh plates and allowed to grow for 30 hours. A suspension inoculum is made from the plates (e.g., a 1 McFarland solution in sterile water), from which the turbidity may be optically read. A standard inoculum may then be cultured in media and 100 μL of that solution combined with 100 μL of drug product and grown at various dilutions for 16-20 hrs. Duplicates may then be examined (e.g., following pelleting at 7,000 RPM for 15 min, resuspended in PBS and serial dilutions plated and grown for 24 hrs.). Duplicate plates at multiple dilutions may then be imaged and colonies counted.

**Q.** How did the “effect of increasing amounts of CA in the UCA and LARG composition” value turn out when `CCCCCCCCCCCCCCCCO` [CA, cetyl alcohol] was run?
**A.** Its value is “decrease in efficacy”.
